Laboratory results published in US6515197B1, “Transgenic mouse expressing a polynucleotide encoding a human ataxin-2 polypeptide” (Cedars-Sinai Medical Center, priority 2000, dated 2003).

Test system: proteasomal pathway
Assay: lactacystin treatment of 293T cells transfected with SCA2 constructs, western blot
Assay type: cell-based
Experimental: To further confirm that the 42 kD fragment was generated preferably by ataxin-2 with an expanded polyQ tract, and to investigate whether mutant ataxin-2 was ubiquitinated, 293T cells were transfected with pEGFP-SCA2(Q22) or pEGFP-SCA2(Q58), followed by treatment with lactacystin for 24 hours to inhibit the proteasomal pathway. Briefly, to generate GFP fusion with SCA2, a full-length SCA2 cDNA including nucleotides 145 to 4,481 (Pulst et al., Nature Genet., 14:269-276 (1996)) was assembled in the pBluescript vector with 22 or 58 CAG repeats. To generate ataxin-2 expression plasmids, the full-length SCA2 cDNA containing either the 22 or 58 CAG repeat was shuttled into the pEGFPC2 (Clontech; Palo Alto Calif.) or pcDNA vectors (Invitrogen; Carlsbad Calif.). These constructs were named pEGFP-SCA22, pEGFP-SCA58, pcDNA-SCA22 or pcDNA-SCA58.
Transient expression of pEGFP-SCA2 constructs was analyzed in 293T cells. To investigate ubiquitination of ataxin-2, 293T cells growing at 60% confluency in 100-mm Petri dishes were transfected with either pEGFP-SCA2 or pcDNA-SCA2 constructs (10 μg) containing either 22 or 58 CAG repeats. Transfected cells were grown overnight and then treated with culture medium with or without lactacystin (10 μM) for 24 h. Cells were incubated with triple detergent buffer (0.5% sodium dodecyl sulfate (SDS), 1% Triton-X 100, 0.5% deoxycholate, 100 mM Tris-HCl, pH 8.0, 150 mM NaCl, and Sigma mammalian protease inhibitors cocktail (Sigma; St. Louis Mo.)) for 1 h on ice with occasional vortexing. Protein extracts were centrifuged at maximum speed in an Eppendorf microfuge at 4° C. for 30 min, and pellets were resuspended in triple detergent buffer. Both protein extract and pellet suspension were stored at −70° C. For western-blot analysis, 100 μg total protein extract per lane was mixed with SDS-polyacrylamide gel electrophoresis (PAGE) sample buffer and incubated for 2 h at 37° C. before loading on to a 4-15% SDS-PAGE gradient gel. Western blots were detected with SCA2A, 1C2 and ubiquitin antibodies.
Western blots were performed on transfected 293 cell protein extracts and insoluble pellets using the GFP or ubiquitin antibody. Untreated cells served as controls. The GFP antibody detected the full-length GFP-ataxin-2 with Q22 and Q58 at 200 kD and an additional band at 70 kD in 293T cells transfected with pEGFP-SCA2(Q58). Neither the 70 kD nor the 200 kD proteins were detected in untransfected 293T protein extracts.
To investigate whether the GFP fusion caused any interference with ubiquitin conjugation, 293T cells were transfected with pcDNA-SCA2(Q22) or pcDNA-SCA2(58) and treated with lactacystin.

Structure (SMILES): CC(=O)N[C@@H](CSC(=O)[C@]1([C@@H](O)C(C)C)NC(=O)[C@H](C)[C@@H]1O)C(=O)O [lactacystin]
- levels of GFP-tagged ataxin-2 (293T cells transfected with pEGFP-SCA2(Q22) or (Q58), lactacystin 10 μM for 24 h, versus untreated cells, GFP antibody): increased levels
- levels of ubiquitin-conjugated protein complexes (293T cells transfected with pEGFP-SCA2(Q22) or (Q58), lactacystin 10 μM for 24 h, versus untreated cells, ubiquitin antibody): increased levels
- total amount of ataxin-2(Q58) (p180) (293T cells transfected with pcDNA-SCA2(58), lactacystin-treated, 1C2 or ubiquitin antibodies): increased
- formation of large ataxin-2 aggregates (293T cells transfected with pcDNA-SCA2(Q22) or pcDNA-SCA2(58), lactacystin-treated, western blot): no large ataxin-2 aggregates were found
